Measured values taken from PubChem BioAssay AID330 (DTP/NCI, 2004).
Values joined by “and” are separate entries in the source; they are usually repeats but may differ in a detail not shown here. Equal values may be shown once. Inconclusive results and toxic doses are left out. How the source made its calls: active means survival T/C of 150% or more; inactive means T/C below 125% in these data.

Tested on: P388 leukemia ip, CD2F1 mice, survival T/C
Test: NCI In Vivo Anticancer Drug Screen. Data for tumor model P388 Leukemia (intraperitoneal) in CD2F1 (CDF1) mice
Details: endpoint: median survival time, higher = longer survival
Outline: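 Mice carrying the transplanted tumor received test compound or vehicle. Survival was recorded in each group, and the value is the treated-group measurement divided by that of the vehicle-treated control group.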

[1] = dose: 50.0 mg/kg/injection, schedule: Q01DX005 (ip), vehicle: Klucel (hydroxypropylcellulose) (HPC)
[2] = dose: 100.0 mg/kg/injection, schedule: Q01DX005 (ip), vehicle: Klucel (hydroxypropylcellulose) (HPC)
[3] = dose: 200.0 mg/kg/injection, schedule: Q01DX005 (ip), vehicle: Klucel (hydroxypropylcellulose) (HPC)
[4] = dose: 50.0 mg/kg/injection, schedule: Q01DX009 (ip), vehicle: Klucel (hydroxypropylcellulose) (HPC)
[5] = dose: 100.0 mg/kg/injection, schedule: Q01DX009 (ip), vehicle: Klucel (hydroxypropylcellulose) (HPC)
[6] = dose: 200.0 mg/kg/injection, schedule: Q01DX009 (ip), vehicle: Klucel (hydroxypropylcellulose) (HPC)
[7] = dose: 12.5 mg/kg/injection, schedule: Q01DX009 (ip), vehicle: saline with Tween-80
[8] = dose: 25.0 mg/kg/injection, schedule: Q01DX009 (ip), vehicle: saline with Tween-80
[9] = dose: 50.0 mg/kg/injection, schedule: Q01DX009 (ip), vehicle: saline with Tween-80
[10] = dose: 100.0 mg/kg/injection, schedule: Q01DX009 (ip), vehicle: saline with Tween-80
[11] = dose: 12.5 mg/kg/injection, schedule: Q04DX003 (ip), vehicle: saline
[12] = dose: 25.0 mg/kg/injection, schedule: Q04DX003 (ip), vehicle: saline
[13] = dose: 6.25 mg/kg/injection, schedule: Q01DX005 (ip), vehicle: saline with Tween-80
[14] = dose: 12.5 mg/kg/injection, schedule: Q01DX005 (ip), vehicle: saline with Tween-80
[15] = dose: 25.0 mg/kg/injection, schedule: Q01DX005 (ip), vehicle: saline with Tween-80
[16] = dose: 50.0 mg/kg/injection, schedule: Q01DX005 (ip), vehicle: saline with Tween-80
[17] = dose: 6.25 mg/kg/injection, schedule: Q01DX009 (ip), vehicle: saline with Tween-80
[18] = dose: 100.0 mg/kg/injection, schedule: Q01DX005 (ip), vehicle: saline with Tween-80
[19] = dose: 200.0 mg/kg/injection, schedule: Q01DX005 (ip), vehicle: saline with Tween-80

Measured: T/C

COc1c(Br)c2c(c([N+](=O)[O-])c1OC)C(=O)OC2C1c2c(cc3c(c2OC)OCO3)CCN1C (stereo not given)
inactive: dose: 25.0 mg/kg/injection, schedule: Q01DX005 (ip), vehicle: Klucel (hydroxypropylcellulose) (HPC) 91 % of control | [1] 104 % of control | [2] 104 % of control | [3] 103 % of control

CCC(c1ccc(Cl)cc1)C(C#N)c1ccc(Cl)cc1 (stereo not given)
inactive: [4] 108 % of control | [5] 104 % of control | [6] 102 % of control

CNP1(NC)=NP(N(C)C)(N(C)C)=NP(N(C)C)(N(C)C)=N1
inactive: dose: 50.0 mg/kg/injection, schedule: Q01DX005 (ip), vehicle: saline 102 % of control | dose: 100.0 mg/kg/injection, schedule: Q01DX005 (ip), vehicle: saline 112 % of control | dose: 200.0 mg/kg/injection, schedule: Q01DX005 (ip), vehicle: saline 104 % of control

C=Cn1cc[n+](CC(=O)OC2CCC3C4CCC5=CC(=O)CCC5(C)C4CCC23C)c1 (stereo not given)
inactive: dose: 3.75 mg/kg/injection, schedule: Q01DX005 (ip), vehicle: Klucel (hydroxypropylcellulose) (HPC) 97 % of control | dose: 7.5 mg/kg/injection, schedule: Q01DX005 (ip), vehicle: Klucel (hydroxypropylcellulose) (HPC) 96 % of control

O=C1c2ccccc2C(=O)c2c(NCCCC3CCCN4CCCCC34)cccc21 (stereo not given)
inactive: [1] 105 % of control | [2] 100 % of control

CC1([N+](=O)[O-])C(=O)C2(N3CCCCC3)CCCC2C1c1ccccc1 (stereo not given)
inactive: dose: 60.0 mg/kg/injection, schedule: Q01DX005 (ip), vehicle: Klucel (hydroxypropylcellulose) (HPC) 99 % of control | dose: 120.0 mg/kg/injection, schedule: Q01DX005 (ip), vehicle: Klucel (hydroxypropylcellulose) (HPC) 96 % of control | dose: 240.0 mg/kg/injection, schedule: Q01DX005 (ip), vehicle: Klucel (hydroxypropylcellulose) (HPC) 97 % of control

CC(C)=CCC(OC(=O)C=C(C)C)c1cc(O)c2c(O)ccc(O)c2c1O.[Cu] (stereo not given)
inactive: dose: 100.0 mg/kg/injection, schedule: Q04DX002 (ip), vehicle: saline with Tween-80 101 % of control | dose: 200.0 mg/kg/injection, schedule: Q04DX002 (ip), vehicle: saline with Tween-80 104 % of control

c1ccc2c(c1)nnn1c3ncccc3nc21
inactive: [7] 108 % of control | [8] 105 % of control | [9] 105 % of control

OCC1OC(Oc2ccc3cc(Br)ccc3c2)C(O)C1O (stereo not given)
inactive: [4] 90 % of control | [5] 99 % of control | [6] 97 % of control

CCN=C1SCCCS1
inactive: [7] 103 % of control | [8] 118 % of control | [9] 113 % of control and 119 % of control | [10] 117 % of control

Cc1cc(NCCCCCCNc2cc(C)[n+](C)c3ccccc23)c2ccccc2[n+]1C
inactive: dose: 3.12 mg/kg/injection, schedule: Q01DX005 (ip), vehicle: suspension in saline 101 % of control | dose: 6.25 mg/kg/injection, schedule: Q01DX005 (ip), vehicle: suspension in saline 106 % of control | dose: 12.5 mg/kg/injection, schedule: Q01DX005 (ip), vehicle: suspension in saline 115 % of control

C/C(=N\N=C(/[Se])N1CCCCC1C)c1ccccn1 (stereo not given)
inactive: dose: 12.5 mg/kg/injection, schedule: Q04DX003 (ip), vehicle: Klucel (hydroxypropylcellulose) (HPC) 101 % of control | dose: 25.0 mg/kg/injection, schedule: Q04DX003 (ip), vehicle: Klucel (hydroxypropylcellulose) (HPC) 114 % of control

CN=C1N[N+]2=CCCCC2S1 (stereo not given)
inactive: [11] 102 % of control | dose: 15.0 mg/kg/injection, schedule: Q01DX009 (ip), vehicle: saline 100 % of control and 101 % of control | [12] 104 % of control | dose: 30.0 mg/kg/injection, schedule: Q01DX009 (ip), vehicle: saline 92 % of control and 97 % of control | dose: 50.0 mg/kg/injection, schedule: Q04DX003 (ip), vehicle: saline 97 % of control | dose: 60.0 mg/kg/injection, schedule: Q01DX009 (ip), vehicle: saline 114 % of control and 96 % of control | dose: 120.0 mg/kg/injection, schedule: Q01DX009 (ip), vehicle: saline 120 % of control and 96 % of control

C=C1CC2C(C1=O)C(c1ccc(OC)cc1)C13OC1CCC23 (stereo not given)
inactive: dose: 100.0 mg/kg/injection, schedule: Q04DX003 (ip), vehicle: Klucel (hydroxypropylcellulose) (HPC) 105 % of control | dose: 200.0 mg/kg/injection, schedule: Q04DX003 (ip), vehicle: Klucel (hydroxypropylcellulose) (HPC) 96 % of control | dose: 400.0 mg/kg/injection, schedule: Q04DX003 (ip), vehicle: Klucel (hydroxypropylcellulose) (HPC) 86 % of control

Cc1sc2c(c1C)c(=O)[nH]c1c(C#N)c(-c3ccc(Cl)cc3)cn12
inactive: dose: 60.0 mg/kg/injection, schedule: Q01DX005 (ip), vehicle: saline with Tween-80 86 % of control and 90 % of control | dose: 120.0 mg/kg/injection, schedule: Q01DX005 (ip), vehicle: saline with Tween-80 89 % of control | dose: 240.0 mg/kg/injection, schedule: Q01DX005 (ip), vehicle: saline with Tween-80 94 % of control

CC(C)(C)c1ccnc(N=C2N=C(Nc3cc(C(C)(C)C)ccn3)c3ccccc32)c1
inactive: [9] 89 % of control | [10] 89 % of control

COc1ccc(Cc2c3ccccc3cc[n+]2Cc2ccccc2)cc1OC
inactive: [13] 103 % of control | [14] 111 % of control | [15] 111 % of control | [16] 114 % of control

CN1CCCC1CCNc1nc(Nc2ccc(Cl)c(Cl)c2)nc2ccc(Cl)cc12 (stereo not given)
inactive: [17] 95 % of control | [7] 90 % of control | [8] 100 % of control

O=C1c2cccc3cc([N+](=O)[O-])cc(c23)C(=O)N1Cc1cccnc1
inactive: [13] 100 % of control | [14] 96 % of control | [15] 92 % of control | [18] 92 % of control | [19] 101 % of control

Cc1ccc(N2C(=O)CC3(CCCCC3)C2=O)cc1C
inactive: [4] 106 % of control | [5] 105 % of control | [6] 97 % of control

[N-]=[N+]=Nc1ccc(C(=O)ON2C(=O)CCC2=O)cc1
inactive: [16] 97 % of control | [18] 105 % of control | [19] 119 % of control

COc1ccc(C2CC(=O)N(CCCl)C(=O)C2)cc1
inactive: dose: 100.0 mg/kg/injection, schedule: Q01DX001 (ip), vehicle: suspension in saline 102 % of control | dose: 200.0 mg/kg/injection, schedule: Q01DX001 (ip), vehicle: suspension in saline 103 % of control | dose: 400.0 mg/kg/injection, schedule: Q01DX001 (ip), vehicle: suspension in saline 100 % of control

Cn1c2c(F)cccc2c(=O)c2c(O)cc3c(c21)C=CC(C)(C)O3
inactive: [1] 96 % of control | [2] 91 % of control | [3] 94 % of control

CN(C)c1ccc(C2OC2C(=O)n2ccc(=O)n(C(=O)C3OC3c3ccc(N(C)C)cc3)c2=O)cc1 (stereo not given)
inactive: dose: 100.0 mg/kg/injection, schedule: Q04DX002 (ip), vehicle: saline 101 % of control | dose: 200.0 mg/kg/injection, schedule: Q04DX002 (ip), vehicle: saline 100 % of control | dose: 400.0 mg/kg/injection, schedule: Q04DX002 (ip), vehicle: saline 97 % of control

CCCCOB(CI)OCCCC
inactive: dose: 6.25 mg/kg/injection, schedule: Q04DX003 (ip), vehicle: saline 110 % of control | [11] 100 % of control | [12] 110 % of control

CC(C)CC(=O)N(CCC#N)c1ncc([N+](=O)[O-])s1
inactive: dose: 100.0 mg/kg/injection, schedule: Q01DX001 (ip), vehicle: Klucel (hydroxypropylcellulose) (HPC) 110 % of control | dose: 200.0 mg/kg/injection, schedule: Q01DX001 (ip), vehicle: Klucel (hydroxypropylcellulose) (HPC) 98 % of control

O=c1c(N=Nc2ccc(S(=O)(=O)Nc3nccs3)cc2)c(O)n(-c2ccccc2)n1-c1ccccc1
inactive: dose: 12.5 mg/kg/injection, schedule: Q01DX009 (ip), vehicle: Klucel (hydroxypropylcellulose) (HPC) 88 % of control | dose: 25.0 mg/kg/injection, schedule: Q01DX009 (ip), vehicle: Klucel (hydroxypropylcellulose) (HPC) 87 % of control and 93 % of control | [4] 90 % of control and 91 % of control and 92 % of control

Cc1cc(C(O)(C(F)(F)F)C(F)(F)F)cc(C(O)(C(F)(F)F)C(F)(F)F)c1
inactive: [1] 100 % of control | [2] 91 % of control | [3] 97 % of control

CC1=NN(c2ccc(S(=O)(=O)O)cc2)C(=O)C1N=Nc1ccc(-c2ccc(N=Nc3ccc(O)c(C(=O)O)c3)c(C)c2)cc1C (stereo not given)
inactive: [17] 100 % of control and 91 % of control | [7] 99 % of control and 106 % of control and 113 % of control | [8] 100 % of control and 120 % of control and 91 % of control
